# Assay results published in patent US20150011542A1, “Methods of Treating Adverse Intestinal Effects of Non-Steroidal Anti-Inflammatory Drugs” (University of Connecticut, priority 2012, published 2015).
# Entries after “also recorded” stand apart in the source; their conditions may differ.
# What was measured:
# E. coli β-glucuronidase = target: T1, E. coli β-glucuronidase (Escherichia coli, UniProt P05804); experiment: Inhibition of E. coli β-glucuronidase cleavage of diclofenac 1-β-O-acyl glucuronide (HPLC-UV of DCF product); assay type: biochemical
# T1 construct: made in house
# [1] = cited from earlier work
# [2] = tested on: DCF-induced small intestinal ulceration; experiment: Diclofenac-induced small intestinal ulceration in mice (NBT staining, morphometry, histopathology); assay type: in vivo
# Source text: Male C57BL/6J mice were obtained from The Jackson Laboratory (Bar Harbor, Me.). The mice were acclimatized for three weeks before the experiments and were 10-12 weeks of age at the start of the experiments. The animals were kept on a 14:10-hour light:dark cycle. They received mouse chow (Teklad Global Rodent Diet, Harlan Laboratories, Boston, Mass.) and water ad libitum. All studies were approved by the Institutional Animal Care and Use Committee of the University of Connecticut. […] All animals were treated at five hours before the start of the dark cycle. […] Control animals received methyl cellulose and/or Solutol HS-15.
# (§1) Enteropathy was assessed and graded as described previously (Ramirez-Alcantara et al., Am. J. Physiol. (Gastrointest. Liver Physiol.), 297:G990-G998 (2009)). Briefly, mice were sacrificed by CO2 inhalation at 18 hours post-DCF (when the development of mucosal injury was maximal). A midline incision was made and blood was obtained via cardiac puncture. Serum was prepared and frozen at −80° C. until use for analysis. The entire small intestine (from the gastroduodenal junction to the ileocecal junction) was removed and opened longitudinally along the anti-mesenteric side. The tissue was rinsed in cold PBS and incubated for 15 minutes in 1 mM nitroblue tetrazolium (NBT) solution containing 16 mM HEPES-NaOH, 125 mM NaCl buffer, 3.5 mM KCl, and 10 mM glucose. Next, the tissues were fixed in 10% zinc formalin for 24 hours, washed, and transferred to 70% ethanol. The intestine was metrically divided into four quartiles of equal length and evaluated at 10× magnification for quantitative and qualitative analysis of mucosal injury, and the lesions were assigned to the respective quartiles. The following scoring system was used: 0, no apparent lesions; 1, small erosions or ulcers (<0 1 mm); 2, medium ulcers (0.1-0.8 mm); 3, large confluent ulcers (>0.8 mm) In addition, the total area of the lesions was quantified by Image J software. The formalin-fixed tissue was embedded in paraffin, and 5-μm sections were stained with hematoxylin/eosin for histopathological evaluation. Serum activity of alkaline phosphatase (ALP) was measured with a kinetic colorimetric kit (BioAssay Systems, Hayward, Calif.).
# [3] = tested on: serum alkaline phosphatase (ALP) activity; experiment: Serum alkaline phosphatase activity as biomarker of enteropathy; assay type: in vivo, mice; conditions: Inh-1 pretreatment; 18 h post-DCF
# Protocol: as §1, with “(Ramirez-[…]” for “(Ramirez-Alcantara”, “297:[…]-[…]” for “297:G990-G998”, “-80°” for “−80°”, “Next, the tissues were fixed in 10% zinc formalin for 24 hours, washed, and transferred to 70% ethanol.” left out, “The following scoring system was used: 0, no apparent lesions; 1, small erosions or ulcers (<0 1 mm); 2, medium ulcers (0.1-0.8 mm); 3, large confluent ulcers (>0.8 mm) In addition, the total area of the lesions was quantified by Image J software.” left out
# [4] = Pharmacokinetic profiling of diclofenac in mice with or without Inh-1 pretreatment; conditions: male, C57BL/6, mouse, in vivo, ip, 60 mg/kg
# in vivo = conditions: male, C57BL/6, mouse, 60 mg/kg
# [5] = humans, cited from earlier work
# [6] = mouse, in vivo, ip, 60 mg/kg
# T1 sequence (P05804 whole entry): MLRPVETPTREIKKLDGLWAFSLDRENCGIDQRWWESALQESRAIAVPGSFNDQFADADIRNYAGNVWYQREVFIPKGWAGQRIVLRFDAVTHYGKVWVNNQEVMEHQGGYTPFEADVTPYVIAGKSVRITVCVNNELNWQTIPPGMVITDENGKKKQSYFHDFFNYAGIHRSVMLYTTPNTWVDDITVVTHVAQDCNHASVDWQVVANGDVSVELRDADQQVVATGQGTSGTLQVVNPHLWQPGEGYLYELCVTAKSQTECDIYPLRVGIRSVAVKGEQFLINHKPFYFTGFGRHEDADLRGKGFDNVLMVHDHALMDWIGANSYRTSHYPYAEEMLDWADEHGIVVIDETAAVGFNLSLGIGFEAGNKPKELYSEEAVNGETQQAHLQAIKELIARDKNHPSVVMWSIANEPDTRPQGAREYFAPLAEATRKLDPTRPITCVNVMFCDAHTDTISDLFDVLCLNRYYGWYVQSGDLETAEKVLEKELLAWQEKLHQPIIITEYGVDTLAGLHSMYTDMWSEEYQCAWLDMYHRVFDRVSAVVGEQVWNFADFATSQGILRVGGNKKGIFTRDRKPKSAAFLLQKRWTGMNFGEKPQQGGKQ
smiles,measurement,setting,value
"O=C(Cc1ccccc1Nc1c(Cl)cccc1Cl)O[C@@H]1O[C@H](C(=O)O)[C@@H](O)[C@H](O)[C@H]1O [DCF-AG, diclofenac 1-β-O-acyl glucuronide]",conversion of DCF-AG to its aglycone by purified enzyme (substrate),"E. coli β-glucuronidase; various concentrations, data not shown",converted DCF-AG (various concentrations) to its aglycone
same,amount of biliary DCF-AG relative to parent DCF,[1]; gallbladder-cannulated mice,117 fold
same,amount of biliary DCF-AG relative to ring-hydroxylated DCF,[1]; gallbladder-cannulated mice,22 fold
same,amount of DCF-AG in bile,[1]; mice,approximately 4 % of the dose
"CCOc1ccc(NC(=S)N(CCO)Cc2cc3cc(C)cc(C)c3[nH]c2=O)cc1 [Inh-1, ((6,8-dimethyl-2-oxo-1,2-dihydroquinolin-3-yl)methyl)-3-(4-ethoxyphenyl)-1-(2-hydroxyethyl)thiourea]",inhibition of product (free DCF) formation,"E. coli β-glucuronidase; increasing Inh-1 concentrations, DCF-AG 4 mM, FIG. 1B",concentration-dependent inhibition of product formation
same,inhibition at 100 µM,E. coli β-glucuronidase; read-out: inhibition of release of free DCF from DCF-AG,> 90%
same,"ulcer size and number, quartiles 3 and 4","[2]; Inh-1 10 μg/mouse po b.i.d. x2 days before DCF 60 mg/kg ip, 18 h post-DCF",greatly reduced both in size and number
same,histopathology: ulcers with loss of villi and inflammatory response,[2]; Inh-1 pretreatment plus DCF 60 mg/kg ip,largely prevented these changes
same,"NBT-positive areas of ulceration, macroscopic","[2]; Inh-1 pretreatment plus DCF 60 mg/kg ip, jejunum, 18 h",absence of any large ulceration; also recorded: only few isolated and small NBT-positive areas
same,protection from DCF-induced acute small intestinal injury,"[2]; mice, overall conclusion",significant protection
same,DCF-associated decrease in serum alkaline phosphatase (ALP) activity,[3],largely prevented
"O=C(O)Cc1ccccc1Nc1c(Cl)cccc1Cl [Diclofenac, diclofenac]",half-life,[4],169 min
same,Tmax,in vivo,9.6 min
same,AUC(0-t),in vivo; ip,208 µg·h/mL
same,Cmax,in vivo; ip,265 µg/mL
same,Tmax,in vivo; ip,10 min
same,total DCF clearance in the form of glucuronides,[5]; including AGs of 4′-hydroxy-DCF,approximately 75%
same,DCF excreted via bile,[5]; initial studies,10-20%
same,small intestinal ulceration caused by DCF alone,"[2]; DCF 60 mg/kg ip, single dose, 18 h",developed typical nitroblue tetrazolium-(NBT-) positive areas of ulceration in the jejunum and ileum
same,apparent Cmax,[6],high micromolar range
same,[14C]-DCF equivalents appearing in bile,[1]; during 60 minutes after intravenous 5 mg/kg in mice,42%
